Values of other authors as cited in patent US11389451B2, “Metolazone emulsion formulation” (ACADEMIC PHARMACEUTICALS, INC., priority 2017, dated 2022).

Conditions: background statement

## Cc1ccccc1N1C(=O)c2cc(S(N)(=O)=O)c(Cl)cc2NC1C (centres unmarked) [Metolazone]
  solubility in lipids: moderate to high
  solubility in water: low
